Experiments:
[1] = Octanol-water partition coefficient, log P of the compound; type: physicochemical
[2] = test system: Aspergillus niger; assay: Antimicrobial activity against Aspergillus niger MTCC 2425 after 7 days by serial dilution method; type: functional
[3] = test system: Candida albicans; assay: Antimicrobial activity against Candida albicans MTCC 227 after 2 days by serial dilution method; type: functional
[4] = test system: Escherichia coli; assay: Antimicrobial activity against Escherichia coli MTCC 739 after 24 hr by serial dilution method; type: functional
[5] = test system: Bacillus subtilis; assay: Antimicrobial activity against Bacillus subtilis MTCC 2423 after 24 hr by serial dilution method; type: functional
[6] = test system: Staphylococcus aureus; assay: Antimicrobial activity against Staphylococcus aureus MTCC 1430 after 24 hr by serial dilution method; type: functional

CC(C)[C@@H]1CC[C@@H](C)C[C@H]1OC(=O)c1cccc([N+](=O)[O-])c1
logP [1]: 4.78
-logMIC [2]: 2.29
-logMIC [3]: 2.33
-logMIC [4]: 2.29
-logMIC [5]: 1.99
-logMIC [6]: 2.29

CC(C)[C@@H]1CC[C@@H](C)C[C@H]1OC(=O)/C=C/c1ccccc1
logP [1]: 5.23
-logMIC [2]: 2.01
-logMIC [3]: 1.96
-logMIC [4]: 1.96
-logMIC [5]: 2.26
-logMIC [6]: 1.96

Cc1ccc(C(=O)O[C@@H]2C[C@H](C)CC[C@H]2C(C)C)cc1
logP [1]: 5.29
-logMIC [2]: 2.04
-logMIC [3]: 1.94
-logMIC [4]: 1.9
-logMIC [5]: 2.1
-logMIC [6]: 1.85

CCn1cc(C(=O)O)c(=O)c2cc(F)c(N3CCNCC3)cc21 [NORFLOXACIN]
-logMIC [4]: 2.61
-logMIC [5]: 2.61
-logMIC [6]: 2.61

OC(Cn1cncn1)(Cn1cncn1)c1ccc(F)cc1F [FLUCONAZOLE]
-logMIC [2]: 2.64
-logMIC [3]: 2.64

CC(C)[C@@H]1CC[C@@H](C)C[C@H]1OC(=O)/C=C/c1cccc([N+](=O)[O-])c1
logP [1]: 5.18
-logMIC [2]: 2.33
-logMIC [3]: 2.33
-logMIC [4]: 2.14
-logMIC [5]: 2.03
-logMIC [6]: 2.33

CC(C)[C@@H]1CC[C@@H](C)C[C@H]1OC(=O)/C=C/c1ccccc1[N+](=O)[O-]
logP [1]: 5.18
-logMIC [2]: 2.33
-logMIC [3]: 2.33
-logMIC [4]: 2.33
-logMIC [5]: 2.03
-logMIC [6]: 2.33

Cc1cccc(C(=O)O[C@@H]2C[C@H](C)CC[C@H]2C(C)C)c1
logP [1]: 5.29
-logMIC [2]: 2.03
-logMIC [3]: 1.94
-logMIC [4]: 1.93
-logMIC [5]: 2.02
-logMIC [6]: 2.05

COc1ccc(C(=O)O[C@@H]2C[C@H](C)CC[C@H]2C(C)C)cc1
logP [1]: 4.57
-logMIC [2]: 2.04
-logMIC [3]: 1.67
-logMIC [4]: 1.98
-logMIC [5]: 2.01
-logMIC [6]: 2.01

CC(C)[C@@H]1CC[C@@H](C)C[C@H]1OC(=O)/C=C/c1ccc([N+](=O)[O-])cc1
logP [1]: 5.18
-logMIC [2]: 2.18
-logMIC [3]: 2.33
-logMIC [4]: 2.33
-logMIC [5]: 2.33
-logMIC [6]: 2.03

CC(C)[C@@H]1CC[C@@H](C)C[C@H]1OC(=O)c1ccccc1 [MENTHYL BENZOATE]
logP [1]: 4.82
-logMIC [2]: 1.92
-logMIC [3]: 1.92
-logMIC [4]: 2.01
-logMIC [5]: 2.01
-logMIC [6]: 1.92

COc1cccc(C(=O)O[C@@H]2C[C@H](C)CC[C@H]2C(C)C)c1
logP [1]: 4.57
-logMIC [2]: 2.11
-logMIC [3]: 1.97
-logMIC [4]: 1.97
-logMIC [5]: 1.99
-logMIC [6]: 1.97

CC(C)[C@@H]1CC[C@@H](C)C[C@H]1OC(=O)c1cccc(Br)c1
logP [1]: 5.61
-logMIC [2]: 2.04
-logMIC [3]: 2.04
-logMIC [4]: 1.88
-logMIC [5]: 1.96
-logMIC [6]: 1.96

CC(C)[C@@H]1CC[C@@H](C)C[C@H]1OC(=O)CCl
logP [1]: 3.5
-logMIC [2]: 2.17
-logMIC [3]: 1.87
-logMIC [4]: 1.79
-logMIC [5]: 1.86
-logMIC [6]: 2

CC(Cl)C(=O)O[C@@H]1C[C@H](C)CC[C@H]1C(C)C (stereo partly specified)
logP [1]: 4.04
-logMIC [2]: 1.9
-logMIC [3]: 1.9
-logMIC [4]: 1.9
-logMIC [5]: 1.9
-logMIC [6]: 1.6

CC(C)[C@@H]1CC[C@@H](C)C[C@H]1OC(=O)c1ccccc1Br
logP [1]: 5.61
-logMIC [2]: 2.04
-logMIC [3]: 2.04
-logMIC [4]: 1.98
-logMIC [5]: 2.04
-logMIC [6]: 2.04

CC(=O)O[C@@H]1C[C@H](C)CC[C@H]1C(C)C
logP [1]: 2.91
-logMIC [2]: 1.98
-logMIC [3]: 1.8
-logMIC [4]: 1.5
-logMIC [5]: 1.8
-logMIC [6]: 1.5

CC(C)[C@@H]1CC[C@@H](C)C[C@H]1OC(=O)c1ccc([N+](=O)[O-])cc1
logP [1]: 4.78
-logMIC [2]: 2.18
-logMIC [3]: 2.29
-logMIC [4]: 1.99
-logMIC [5]: 2.02
-logMIC [6]: 2.29

CCC(=O)O[C@@H]1C[C@H](C)CC[C@H]1C(C)C
logP [1]: 3.54
-logMIC [2]: 2.13
-logMIC [3]: 1.83
-logMIC [4]: 1.75
-logMIC [5]: 1.88
-logMIC [6]: 1.75

Cc1ccccc1C(=O)O[C@@H]1C[C@H](C)CC[C@H]1C(C)C
logP [1]: 5.29
-logMIC [2]: 1.94
-logMIC [3]: 1.64
-logMIC [4]: 2.01
-logMIC [5]: 1.94
-logMIC [6]: 1.94

CC(C)[C@@H]1CC[C@@H](C)C[C@H]1OC(=O)c1ccccc1Cl
logP [1]: 5.34
-logMIC [2]: 2.1
-logMIC [3]: 1.97
-logMIC [4]: 2.1
-logMIC [5]: 1.91
-logMIC [6]: 1.97

CC(C)[C@@H]1CC[C@@H](C)C[C@H]1OC(=O)c1ccccc1[N+](=O)[O-]
logP [1]: 4.78
-logMIC [2]: 2.17
-logMIC [3]: 2.29
-logMIC [4]: 2.29
-logMIC [5]: 2.03
-logMIC [6]: 1.99

CC(C)[C@@H]1CC[C@@H](C)C[C@H]1OC(=O)c1ccc([N+](=O)[O-])cc1[N+](=O)[O-]
logP [1]: 4.73
-logMIC [2]: 2.05
-logMIC [3]: 2.05
-logMIC [4]: 2.35
-logMIC [5]: 2.05
-logMIC [6]: 2.35

CC(C)[C@@H]1CC[C@@H](C)C[C@H]1OC(=O)c1ccc(Br)cc1
logP [1]: 5.61
-logMIC [2]: 2.04
-logMIC [3]: 1.85
-logMIC [4]: 2.02
-logMIC [5]: 2.04
-logMIC [6]: 1.98

CC(C)[C@@H]1CC[C@@H](C)C[C@H]1OC(=O)c1cccc(Cl)c1
logP [1]: 5.34
-logMIC [2]: 1.97
-logMIC [3]: 1.97
-logMIC [4]: 1.88
-logMIC [5]: 1.97
-logMIC [6]: 1.97

COc1ccccc1C(=O)O[C@@H]1C[C@H](C)CC[C@H]1C(C)C
logP [1]: 4.57
-logMIC [2]: 2.07
-logMIC [3]: 1.97
-logMIC [4]: 1.97
-logMIC [5]: 1.98
-logMIC [6]: 2.06

CC(C)[C@@H]1CC[C@@H](C)C[C@H]1OC(=O)c1ccc(Cl)cc1Cl
logP [1]: 5.86
-logMIC [2]: 1.95
-logMIC [3]: 1.72
-logMIC [4]: 2.02
-logMIC [5]: 1.96
-logMIC [6]: 2.02

CC(C)[C@@H]1CC[C@@H](C)C[C@H]1OC(=O)c1ccc(Cl)cc1
logP [1]: 5.34
-logMIC [2]: 2.05
-logMIC [3]: 1.67
-logMIC [4]: 1.67
-logMIC [5]: 1.97
-logMIC [6]: 1.88

Reference: ChEMBL document CHEMBL3046879, “Synthesis, antimicrobial evaluation, and QSAR analysis of 2-isopropyl-5-methylcyclohexanol derivatives” (Med Chem Res, 2012)
